# Target: T1, Glycine--tRNA ligase (Bombyx mori, UniProt Q04451)
# T1 sequence (Q04451 whole entry): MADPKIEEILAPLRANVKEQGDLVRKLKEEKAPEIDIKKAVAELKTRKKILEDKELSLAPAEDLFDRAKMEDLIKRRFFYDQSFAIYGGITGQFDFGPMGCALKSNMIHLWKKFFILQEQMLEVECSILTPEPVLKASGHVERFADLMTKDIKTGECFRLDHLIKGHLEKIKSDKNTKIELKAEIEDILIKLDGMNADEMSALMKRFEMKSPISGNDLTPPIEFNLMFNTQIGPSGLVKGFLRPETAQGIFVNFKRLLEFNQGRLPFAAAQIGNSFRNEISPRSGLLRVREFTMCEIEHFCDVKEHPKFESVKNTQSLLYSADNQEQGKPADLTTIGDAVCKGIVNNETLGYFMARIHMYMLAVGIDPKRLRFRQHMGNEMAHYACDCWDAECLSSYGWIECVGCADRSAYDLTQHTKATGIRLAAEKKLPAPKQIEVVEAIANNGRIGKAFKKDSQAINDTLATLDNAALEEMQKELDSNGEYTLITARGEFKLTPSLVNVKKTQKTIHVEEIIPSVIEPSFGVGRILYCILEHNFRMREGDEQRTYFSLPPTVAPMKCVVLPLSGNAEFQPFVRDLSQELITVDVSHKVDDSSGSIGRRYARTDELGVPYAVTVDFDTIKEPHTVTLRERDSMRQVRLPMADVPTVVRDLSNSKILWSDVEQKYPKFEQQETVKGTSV
# Assay: In Vitro Enzyme Activity Assay
# Details: pH 7.5; 25 °C
# Text: Aminoacyl-tRNA synthetase assays were measuring the incorporation of [14C] amino acid into tRNA.
Structure (SMILES),IC50 [µM],Ki [µM],Kd [µM]
Nc1ncnc2c1ncn2[C@@H]1O[C@H](COP(=O)(O)OP(=O)(O)OP(=O)(O)O)[C@@H](O)[C@H]1O,100,13,–
NCC(=O)NS(=O)(=O)OC[C@H]1O[C@@H](n2cnc3c(N)ncnc32)[C@H](O)[C@@H]1O [5-O-[N-(L-glycyl)sulfamoyl]adenosine],2,0.05,0.27
Nc1ncnc2c1ncn2[C@@H]1O[C@H](COP(=O)(O)OP(=O)(O)NP(=O)(O)O)[C@@H](O)[C@H]1O [AMP.P[NH]P],100,20,–
Nc1ncnc2c1ncn2[C@@H]1O[C@H](COP(=O)(O)O)[C@@H](O)[C@H]1O [adenosine 5 -monophosphate],800,80,–
Nc1ncnc2c1ncn2[C@@H]1O[C@H](COP(=O)(O)OP(=O)(O)CP(=O)(O)O)[C@@H](O)[C@H]1O [adenylylmethylenediphosphonate],10,0.8,–
"Nc1ncnc2c1ncn2[C@@H]1O[C@H](COP(=O)(O)CP(=O)(O)O)[C@@H](O)[C@H]1O [alpha, beta-methyleneadenosine 5 -diphosphate]",600,60,–

# — BindingDB's records for doi:10.1021/bi030031h (Medical College of Ohio, 2003)
